Source: patent US12377111B2, “Composition, comprising thiamine derivative, for prevention or treatment of hypercortisolemia” (KYUNGPOOK NATIONAL UNIVERSITY INDUSTRY-ACADEMIC COOPERATION …, priority 2018, dated 2025)
Read-outs that look alike come from different tables or passages of the source.

Experiments:
NCI-H295R cells = test: Cortisol production in 8-Br-cAMP-stimulated NCI-H295R cells (ELISA); format: cell-based, human; details: for Cortisol production concentration: 0.5 mM 8-Br-cAMP, 12 h pretreatment + 24 h; for Cortisol production concentration / inhibition of cortisol production increased by 0.5 mM 8-Br-cAMP (in words): NCI-H295R; for reduction in cortisol production: compared with non-treatment group (with 8-Br-cAMP treatment); for inhibition of cortisol production increased by 0.5 mM 8-Br-cAMP (in words): 20, 50, 100 μM
Experimental: Cortisol secretion inhibitory effects by allithiamine (Shanghai iChemical Technology CO., LTD., China), fursultiamine (Toronto Research Chemicals, Canada), or benfotiamine (Sigma-Aldrich, St. Louis, MO, USA), which are thiamine (vitamin B1) based compounds, were tested. For this, cortisol reduction effects in adrenal tumors that excessively secret cortisol were measured.
NCI-H295R (ATCC #CRL-2128) cells, a human adrenocortical carcinoma cell line, were dispensed into 24-well plates at 2.5×10^5 cells/well. Then, the cells were incubated in DMEM/F12 growth media containing 2.5% Nu-serum, 1% ITS (insulin, transferrin, and selenium), bovine serum albumin (BSA), linoleic acid, and penicillin/streptomycin for 48 hours.
Thereafter, the media were exchanged with serum-free media, and then the NCI-H295R cells were pretreated with allithiamine, fursultiamine, or benfotiamine at concentrations of 20 μM, 50 μM, and 100 μM for 12 hours. The cells were treated with 8-bromoadenosine 3′,5′-cyclic monophosphate (8-Br-cAMP) at a concentration of 0.5 mM to increase cortisol synthesis, and again treated with allithiamine, fursultiamine, or benfotiamine at 20 μM, 50 μM, and 100 μM, followed by reaction for 24 hours. After the reaction, cell cultures were collected, and the amount of cortisol produced in the cells was measured using an enzyme-linked immunosorbent assay (ELISA) kit (Enzo Life Sciences, Inc., NY, USA).

CRH-overexpressed mice = system: CRH-overexpressed mice
Experimental: To investigate high-cortisol inhibitory effects, C57BL/6J normal mice (WT-con) aged 8 to 9 weeks and corticotropin-releasing hormone (CRH)-overexpressed mice, which are Cushing's syndrome animal models, were used. One group of CRH-overexpressed mice were orally administered with 60 mg/kg fursultiamine once a day for 9 weeks (CRH tg-Fur 60 mpk).
During this period, the body weight change was monitored by measuring body weights once a week. To check the concentration of corticosterone (in cases of rodents), blood was collected from the tail vein and serum was isolated. The concentration of corticosterone was measured from the isolated serum by using an enzyme-linked immunosorbent assay (ELISA) kit (Enzo Life Sciences, Inc., NY, USA). The fat mass was measured 6 weeks after administration of the drug by using a body composition analyzer (MiniSpec LF 50, Bruker Optics, Germany), and the fat distribution was again monitored with micro CT images 8 weeks after administration.

8-week-old male mice = details: for corticosterone concentration: serum, oral 24 h and 2 h before stress
Experimental: For the restraint stress test, 8-week-old male mice were used, and were orally administered with fursultiamine once 24 hours before and once 2 hours before stress induction. For induction of stress, the mice were individually placed head-first into well-ventilated 50 mL polypropylene tubes, which were then tied with a cap of the 50 mL tube, and the mice were confined for 2 hours. Before stress induction, 1 hour and 2 hours after induction, and at 1 hour of recovery, blood was collected from the tail vein and serum was isolated, and then the concentration of corticosterone was measured using ELISA kit.

**Q.** Which results are given for `C/C(=C(\CCOP(=O)(O)O)SC(=O)c1ccccc1)N(C=O)Cc1cnc(C)nc1N` [benfotiamine]?
**A.** Cortisol production concentration (NCI-H295R cells; 20 μM compound): 14.0 ng/mL; Cortisol production concentration (NCI-H295R cells; 50 μM compound): 12.0 ng/mL; reduction in cortisol production (NCI-H295R cells; 50 μM): 22.6%; Cortisol production concentration (NCI-H295R cells; 100 μM compound): 8.6 ng/mL; reduction in cortisol production (NCI-H295R cells; 100 μM): 44.3%; inhibition of cortisol production increased by 0.5 mM 8-Br-cAMP (in words) (NCI-H295R cells): significantly inhibited the cortisol production

**Q.** `CC(=C(CCO)SSCC1CCCO1)N(C=O)Cc1cnc(C)nc1N` (stereo in doubt) [fursultiamine] was tested. Which “corticosterone synthesis concentration (in words)” value (CRH-overexpressed mice; CRH-overexpressed mice, 60 mg/kg oral) did it give?
**A.** smaller compared with the normal group

**Q.** And the “fat mass, Body weight (%)” value (CRH-overexpressed mice; CRH-overexpressed mice, 60 mg/kg oral once a day, 6 weeks after administration, body composition analyzer)?
**A.** 23.4%

**Q.** What about the “increase in body weight (in words)” value (CRH-overexpressed mice; CRH-overexpressed mice, 60 mg/kg oral, 9 weeks, vs CRH-overexpressed control) of the same molecule?
**A.** smaller increase in body weight compared with the control

**Q.** And the “fat mass (in words)” value (CRH-overexpressed mice; CRH-overexpressed mice, 60 mg/kg oral, vs control)?
**A.** smaller compared with the control

**Q.** What about the Corticosterone (CRH-overexpressed mice; serum, CRH-overexpressed mice, 60 mg/kg oral once a day) of the same molecule?
**A.** 87.1 ng/mL

**Q.** What about the body weight (CRH-overexpressed mice; week 0, CRH-overexpressed mice, 60 mg/kg oral once a day) of the same molecule?
**A.** 18.4

**Q.** And the body weight (CRH-overexpressed mice; week 1, CRH-overexpressed mice, 60 mg/kg oral once a day)?
**A.** 17.8

**Q.** And the body weight (CRH-overexpressed mice; week 2, CRH-overexpressed mice, 60 mg/kg oral once a day)?
**A.** 17.8

**Q.** And the body weight (CRH-overexpressed mice; week 3, CRH-overexpressed mice, 60 mg/kg oral once a day)?
**A.** 18.2

**Q.** And the body weight (CRH-overexpressed mice; week 4, CRH-overexpressed mice, 60 mg/kg oral once a day)?
**A.** 18.1

**Q.** What about the body weight (CRH-overexpressed mice; week 5, CRH-overexpressed mice, 60 mg/kg oral once a day) of the same molecule?
**A.** 18.4

**Q.** What about the body weight (CRH-overexpressed mice; week 6, CRH-overexpressed mice, 60 mg/kg oral once a day) of the same molecule?
**A.** 17.9

**Q.** What about the body weight (CRH-overexpressed mice; week 7, CRH-overexpressed mice, 60 mg/kg oral once a day) of the same molecule?
**A.** 19.8

**Q.** What about the body weight (CRH-overexpressed mice; week 8, CRH-overexpressed mice, 60 mg/kg oral once a day) of the same molecule?
**A.** 19.7

**Q.** And the body weight (CRH-overexpressed mice; week 9, CRH-overexpressed mice, 60 mg/kg oral once a day)?
**A.** 19.2

**Q.** And the “rate of increase in corticosterone level after stress induction (in words)” value (8-week-old male mice; restraint stress, oral administration)?
**A.** rate of increase in corticosterone level decreased

**Q.** What about the corticosterone concentration (8-week-old male mice; 0 min (before stress induction)) of the same molecule?
**A.** 63.6

**Q.** What about the corticosterone concentration (8-week-old male mice; 60 min (1 hour after stress induction)) of the same molecule?
**A.** 260.4

**Q.** What about the corticosterone concentration (8-week-old male mice; 120 min (2 hours after stress induction)) of the same molecule?
**A.** 261.4

**Q.** And the corticosterone concentration (8-week-old male mice; 180 min (1 hour of recovery))?
**A.** 105.8

**Q.** And the Cortisol production concentration (NCI-H295R cells; 20 μM compound)?
**A.** 14.1 ng/mL

**Q.** And the Cortisol production concentration (NCI-H295R cells; 50 μM compound)?
**A.** 9.0 ng/mL

**Q.** And the “reduction in cortisol production” value (NCI-H295R cells; 50 μM)?
**A.** 43%

**Q.** And the Cortisol production concentration (NCI-H295R cells; 100 μM compound)?
**A.** 7.5 ng/mL

**Q.** What about the “reduction in cortisol production” value (NCI-H295R cells; 100 μM) of the same molecule?
**A.** 52.4%

**Q.** And the “inhibition of cortisol production increased by 0.5 mM 8-Br-cAMP (in words)” value (NCI-H295R cells)?
**A.** significantly inhibited the cortisol production

**Q.** How did the Cortisol production concentration (NCI-H295R cells; 20 μM compound) turn out when `C=CCSS/C(CCO)=C(/C)N(C=O)Cc1cnc(C)nc1N` [allithiamine] was run?
**A.** 10.5 ng/mL

**Q.** What about the Cortisol production concentration (NCI-H295R cells; 50 μM compound) of the same molecule?
**A.** 6.4 ng/mL

**Q.** What about the “reduction in cortisol production” value (NCI-H295R cells; 50 μM) of the same molecule?
**A.** 50.7%

**Q.** What about the Cortisol production concentration (NCI-H295R cells; 100 μM compound) of the same molecule?
**A.** 2.8 ng/mL

**Q.** And the “reduction in cortisol production” value (NCI-H295R cells; 100 μM)?
**A.** 78.7%

**Q.** And the “inhibition of cortisol production increased by 0.5 mM 8-Br-cAMP (in words)” value (NCI-H295R cells)?
**A.** significantly inhibited the cortisol production
